For assay [1], the system named is ovarian cancer cells OV90 and OV3. Description: Glutathione level in ovarian cancer cells treated with APC1. The following applies: ovarian cancer cells (FIG. 18A). The class given is cell-based, human. As to the method:
(§1) Gluthatione Assay Kit (Sigma CS0260);
(§2) Cell lines (MDA-MB-231, MDA-MB-468) were grown in 75 cm^2 cell culture flask, reached 80-90% confluence. The cells were treated with APC1 (250 μg/ml, 2 times per week for 1 week).
(§3) Cells were washed twice with 10 ml PBS, PBS (5 ml) was added and the cells were collected by scrapping, centrifuged at 300G, 4° C. for 5 minutes, the supernatant was then discarded and the cells were treated with APC1 as indicated above. The values of the Glutathione Standard Solutions were used to determine the standard curve and the delta A412/min equivalent to 1 nmole of reduced glutathione per well was calculated according to manufacturer's instructions.
(§4) As detailed above, the ovarian cancer cells OV90 and OV3, the pancreatic cancer cells BxPC3 and Panel and the TNBC cancer cells MDA-MB-231 and MDA-MB-468 were treated with APC1 and then the relative glutathione levels in these cells was measured as detailed above.

In another assay the test system is MDA-MB-468 cells. Description: Resazurin cell viability assay with APC1 and cisplatin or doxorubicin, MDA-MB-468 cells. The class given is cell-based, human. The following applies: MDA-MB-468 pre-incubated with APC1 250 μg/ml; doxorubicin 0.3, 0.5, 1 μM, 48 hours; concentration dependent. As to the method:
Cells treated with APC1 were seeded with APC1 at 250 μg/ml. The cells were incubated overnight.
Then the media was aspirated from the plates, and 100 μl of the treatment solutions were added to the appropriate wells, each treatment in triplicates. The cells were incubated for 48 hours.
Background: Alamar Blue is a resazurin reagent that responds to reducing activity.

The next assay deals with HER2. Description: HER2 immunohistochemistry of MDA-MB-231 tumor sections from nude mice. The class given is in vivo, Balb/C Nude mice. To be noted: mice with MDA-MB-231 tumors; APC1 350 μg per mouse, three times per week, two weeks; vs saline. As to the method:
MDA-MB-231 cells were grown in DMEM medium with Hepes (Gibco 41965-039) containing 10% heat inactivated Fetal Bovine Serum (Biological industries, #04-121-1A) and 1% Pen-Strep antibiotic (Biological industries, 03-031-1B) inside a 175 cm^2 flask (Nunc 178883). The cells were incubated at 37° C. in the presence of 5% CO2 and 95% humidity. The other cancer cells injected into mice (namely OV90 and Panc1) were prepared in a similar manner.
When a sufficient number of cells were present, the cells were centrifuged at 300 g for 5 minutes. The supernatant was discarded and 5-10 ml PBS (Biological Industries, #02-023-5A) was added to the cell pellet in order to wash the remaining medium. The cells were centrifuged again (same speed and time), the supernatant was discarded and 5-10 ml Saline was added to the cells. At this stage the cells were counted under a light microscope using a Hemocytometer, and saline was accordingly added to reach a concentration of 8×10^6 cells/200 μl.
Female Balb/C Nude mice (as detailed above) were retained in the Inventor's animal facility for at least 24 hours. Next all mice were intraperitoneally injected with 8×10^6 cells (in 200 μl saline) using a 27 G needle.
APC1 peptide was diluted in saline to the appropriate concentration in order to inject a dose of 350 μg/mouse. After the tumors reached the size of 0.5 cm×0.5 cm (usually 5 days) treatment of mice began. […]

The test system of assay [2] is TNBC cancer cells MDA-MB-231 and MDA-MB-468. Description: Glutathione level in TNBC cells treated with APC1. The class given is cell-based, human. To be noted: TNBC cancer cells (FIG. 18C). As to the method:
as §1, §2, §3, §4

For the sequence “EKGAAFSPIYPRRK (C terminal peptide of KTPAF50) [APC1, polypeptide consisting of the 14 C-terminal amino acid residues of the peptide KTPAF50]”, the level of glutathione result in assay [1] and in assay [2] was “decreased” in each case. The “sensitivity to doxorubicin (relative cell viability)” value with MDA-MB-468 cells is “increased the sensitivity”. Further, in the assay with HER2, the “HER2 expression on the cell surface of tumor cells (immunohistochemistry)” value is given as “clear HER2 expression”.

(Values after patent US12071488B2, “Method of sensitizing cancer cells to anti-cancer treatment” (TWO TO BIOTECH LTD., priority 2017, dated 2024).)
